Results as given in patent US20120251527A1, “PODOCYTE SPECIFIC ASSAYS AND USES THEREOF” (University of Miami, priority 2009, published 2012).

System: NFAT
Test: Podocyte-NFAT reporter assay (luciferase)
Assay type: cell-based, mouse
Settings: for baseline NFAT activity: wild type (wt) podocytes, single inhibitor, FIG. 8
Text: Podocyte-NFAT reporter assays: A podocyte cell line that stably expressed pGL4.30 reporter plasmid (Promega) was generated. pGL4.30 includes the luc2P firefly luciferase gene under the control of the NFAT response element. For LPS treatments both wt and stable TRPC6 knockdown podocyte cell line were transiently transfected with the pGL4.30 and pGL4.74 reporter plasmids (Promega). pGL4.74 includes the hRluc Renilla luciferase gene under the control of the constitutive HSV-TK promoter, serving as an internal control for normalization of the results. Cells were seeded in 96 well plates in standardized cell number and differentiated for three weeks prior to transfection and treatments. Stable cell lines were probed with BRIGHT-GLO Luciferase Assay System (Promega), transiently transfected cells were assayed with DUAL-GLO Luciferase Assay System (Promega). Luminescence was measured on a Molecular Devices luminescence microplate reader SpectraMax L. All experiments were carried out in octuplicate per condition and repeated in three independent experiments.

| Compound | baseline NFAT activity | NFAT activity after pretreatment with the substance (wt podocytes, versus low baseline, FIG. 6A) |
| --- | --- | --- |
| O=S(=O)(NCCNC/C=C/c1ccc(Br)cc1)c1cccc2cnccc12 [H-89] | reduction | – |
| CN([C@@H](Cc1ccc(OS(=O)(=O)c2cccc3cnccc23)cc1)C(=O)N1CCN(c2ccccc2)CC1)S(=O)(=O)c1cccc2cnccc12 [KN-62] | reduction | – |
| lipopolysaccharide [LPS] | – | strongly increased |
